# Results reported in the supplement of paper PMC10307832.
# Compound: Cc1ccc(Nc2nccc(N(C)c3ccc4c(C)n(C)nc4c3)n2)cc1S(N)(=O)=O [Pazopanib] + CS(=O)(=O)N1CCN(Cc2cc3nc(-c4cccc5[nH]ncc45)nc(N4CCOCC4)c3s2)CC1 [Pictilisib] (partner 1 µM)
# Assay: relative viability (nuclei count vs DMSO), 5 days (fraction); higher = more cells survive
# Conditions: first compound 1 µM
# Procedure, shortened: (§1)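 After 5 days of treatment, lung cancer cells in 1536-well plates were fixed and stained in a single step (final 0.05% Triton X-100, 1% formaldehyde, 1 ug/ml Hoechst) and their nuclei counted on 4× images. Treatment had been applied by pin tool the day after seeding as one drug alone or as a fixed anchor-drug dose with five library-drug doses (not always all listed) in √10 steps. Relative viability is the nuclei count of treated wells divided by that of vehicle wells, and values are medians of duplicate plates.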
row,Cell Line,relative viability
1,NCI-H1703,0.173
2,NCI-H1993,0.789
3,NCI-H2347,0.548
4,PC-14,0.686
5,LCLC-103H,0.588
6,NCI-H596,0.39
7,NCI-H2126,0.531
8,EMC-BAC-2,0.604
9,NCI-H2085,0.443
10,Calu-6,0.877
11,HCC-366,0.159
12,NCI-H1666,0.426
13,NCI-H647,0.508
14,LK-2,0.496
15,NCI-H2087,1.01
16,NCI-H1395,0.674
17,H3255,0.582
18,COR-L23,0.881

row,Cell Line,relative viability
1,COR-L 105,0.417
2,IA-LM,0.524
3,LOU-NH91,0.543
4,ChaGo-K-1,0.759
5,NCI-H358,0.395
6,A549,0.423
7,NCI-H2009,0.947
8,NCI-H520,0.254
9,SW 1573,0.537
10,NCI-H1299,0.693
11,CAL-12T,0.423
12,NCI-H2228,0.511
13,NCI-H2023,0.277
14,NCI-H1563,0.627
15,SK-LU-1,0.589
16,SK-MES-1,0.335
17,NCI-H661,0.446

# Compound: Cc1ccc(Nc2nccc(N(C)c3ccc4c(C)n(C)nc4c3)n2)cc1S(N)(=O)=O [Pazopanib] + NC(=O)Nc1cc(-c2cccc(F)c2)sc1C(=O)N[C@H]1CCCNC1 [AZD7762] (partner 0.2 µM)
# Assay: as above
# Conditions: first compound 0.01 µM
# Procedure, shortened: as §1
row,Cell Line,relative viability
1,NCI-H2342,0.455
2,NCI-H838,1.04
3,NCI-H2347,0.682
4,PC-14,0.422
5,LCLC-103H,0.576
6,NCI-H596,0.925
7,NCI-H2126,0.963
8,NCI-H2085,0.98
9,HCC-366,0.321
10,NCI-H1666,0.871
11,NCI-H647,0.373
12,LK-2,0.283
13,NCI-H2087,1.36
14,NCI-H1395,0.36
15,H3255,0.897
16,LOU-NH91,0.653
17,ChaGo-K-1,0.859
18,NCI-H358,0.484
19,NCI-H522,0.679
20,SW 900,0.462
21,CAL-12T,0.594

# Same assay, conditions: first compound 0.03162 µM
row,Cell Line,relative viability
1,NCI-H2342,0.484
2,NCI-H838,0.911
3,NCI-H1703,0.12
4,NCI-H1993,0.789
5,NCI-H2347,0.711
6,PC-14,0.328
7,LCLC-103H,0.805
8,NCI-H596,1.1
9,NCI-H2126,0.947
10,EMC-BAC-2,1.14
11,NCI-H2085,0.988
12,HCC-366,0.202
13,NCI-H1666,0.828
14,NCI-H647,0.635
15,LK-2,0.411
16,NCI-H2087,1.23
17,NCI-H1395,0.366
18,H3255,0.906
19,LOU-NH91,0.758
20,ChaGo-K-1,0.859
21,NCI-H358,0.571
22,NCI-H522,0.667
23,SW 900,0.566
24,CAL-12T,0.579

# Same assay, conditions: first compound 0.1 µM
row,Cell Line,relative viability
1,NCI-H2342,0.562
2,NCI-H838,1.04
3,NCI-H1703,0.16
4,NCI-H1993,0.734
5,NCI-H2347,0.773
6,PC-14,0.268
7,LCLC-103H,0.897
8,NCI-H596,1.03
9,NCI-H2126,1.07
10,EMC-BAC-2,1.09
11,NCI-H2085,0.928
12,HCC-366,0.314
13,NCI-H1666,0.788
14,NCI-H647,0.469
15,LK-2,0.398
16,NCI-H2087,1.47
17,NCI-H1648,0.668
18,NCI-H1395,0.389
19,H3255,0.847
20,LOU-NH91,0.78
21,ChaGo-K-1,0.971
22,NCI-H358,0.693
23,NCI-H522,1.09
24,CAL-12T,0.527

# Same assay, conditions: first compound 0.3162 µM
row,Cell Line,relative viability
1,NCI-H2342,0.521
2,NCI-H838,0.909
3,NCI-H1703,0.14
4,NCI-H1993,0.883
5,NCI-H2347,0.822
6,PC-14,0.372
7,LCLC-103H,0.792
8,NCI-H596,1.16
9,NCI-H2126,0.959
10,EMC-BAC-2,1.14
11,NCI-H2085,0.952
12,HCC-366,0.276
13,NCI-H1666,0.823
14,NCI-H647,0.428
15,LK-2,0.451
16,NCI-H2087,1.18
17,NCI-H1648,0.711
18,NCI-H1395,0.38
19,H3255,0.883
20,LOU-NH91,0.836
21,ChaGo-K-1,0.82
22,NCI-H358,0.633
23,NCI-H522,1.03
24,SW 900,0.635
25,CAL-12T,0.568

# Same assay, conditions: first compound 1 µM
row,Cell Line,relative viability
1,NCI-H2342,0.474
2,NCI-H838,0.946
3,NCI-H1703,0.125
4,NCI-H1993,0.645
5,NCI-H2347,0.787
6,PC-14,0.426
7,LCLC-103H,0.822
8,NCI-H596,1.03
9,NCI-H2126,1.04
10,EMC-BAC-2,1.2
11,NCI-H2085,1.06
12,HCC-366,0.238
13,NCI-H1666,0.848
14,NCI-H647,0.546
15,LK-2,0.354
16,NCI-H2087,1.12
17,NCI-H1648,0.796
18,NCI-H1395,0.387
19,H3255,0.913
20,LOU-NH91,0.815
21,ChaGo-K-1,0.865
22,NCI-H358,0.558
23,NCI-H522,0.857
24,SW 900,0.605
25,CAL-12T,0.652

# Compound: Cc1ccc(Nc2nccc(N(C)c3ccc4c(C)n(C)nc4c3)n2)cc1S(N)(=O)=O [Pazopanib] + Nc1ncn([C@H]2C[C@H](O)[C@@H](CO)O2)c(=O)n1 [Decitabine] (partner 2 µM)
# Assay: as above
# Conditions: first compound 0.01 µM
# Procedure, shortened: as §1
row,Cell Line,relative viability
1,NCI-H2342,0.678
2,NCI-H838,0.458
3,NCI-H1650,0.431
4,NCI-H2347,0.68
5,PC-14,0.186
6,LCLC-103H,0.653
7,NCI-H596,0.996
8,NCI-H2126,0.517
9,NCI-H2085,0.573
10,HCC-366,0.384
11,NCI-H1666,0.703
12,NCI-H647,0.402
13,LK-2,0.228
14,NCI-H2087,0.186
15,NCI-H1395,0.651
16,H3255,0.42
17,COR-L23,0.457
18,COR-L 105,0.746
19,LOU-NH91,0.808
20,ChaGo-K-1,0.541
21,NCI-H358,0.217
22,NCI-H522,0.658
23,SW 900,0.516
24,NCI-H2009,0.334
25,NCI-H520,0.48
26,SW 1573,0.465
27,NCI-H2023,0.206
28,SK-LU-1,0.568
29,SK-MES-1,0.338
30,NCI-H661,0.498

# Same assay, conditions: first compound 0.03162 µM
row,Cell Line,relative viability
1,NCI-H2342,0.684
2,NCI-H838,0.462
3,NCI-H1650,0.419
4,NCI-H1993,0.493
5,NCI-H2347,0.555
6,PC-14,0.221
7,LCLC-103H,0.708
8,NCI-H596,1.08
9,NCI-H2126,0.59
10,EMC-BAC-2,1.01
11,NCI-H2085,0.508
12,HCC-366,0.302
13,NCI-H1666,0.716
14,NCI-H647,0.408
15,LK-2,0.318
16,NCI-H2087,0.321
17,NCI-H1395,0.69

row,Cell Line,relative viability
1,H3255,0.618
2,COR-L23,0.43
3,COR-L 105,0.576
4,LOU-NH91,0.78
5,ChaGo-K-1,0.482
6,NCI-H358,0.22
7,A549,0.276
8,NCI-H522,0.666
9,SW 900,0.453
10,NCI-H2009,0.387
11,NCI-H520,0.471
12,SW 1573,0.52
13,NCI-H2023,0.236
14,SK-LU-1,0.611
15,SK-MES-1,0.359
16,NCI-H661,0.576

# Same assay, conditions: first compound 0.1 µM
row,Cell Line,relative viability
1,NCI-H2342,0.918
2,NCI-H838,0.507
3,NCI-H1650,0.464
4,NCI-H1993,0.607
5,NCI-H2347,0.673
6,PC-14,0.245
7,LCLC-103H,0.735
8,NCI-H596,1.14
9,NCI-H2126,0.614
10,EMC-BAC-2,0.999
11,NCI-H2085,0.555
12,HCC-366,0.378
13,NCI-H1666,0.636
14,NCI-H647,0.344
15,LK-2,0.324
16,NCI-H2087,0.264
17,NCI-H1648,0.528

row,Cell Line,relative viability
1,NCI-H1395,0.638
2,H3255,0.602
3,COR-L23,0.442
4,COR-L 105,0.737
5,LOU-NH91,0.828
6,ChaGo-K-1,0.516
7,NCI-H358,0.219
8,A549,0.281
9,NCI-H522,0.817
10,NCI-H2009,0.396
11,NCI-H520,0.569
12,SW 1573,0.607
13,NCI-H2023,0.228
14,SK-LU-1,0.633
15,SK-MES-1,0.369
16,NCI-H661,0.578

# Same assay, conditions: first compound 0.3162 µM
row,Cell Line,relative viability
1,NCI-H2342,0.612
2,NCI-H838,0.414
3,NCI-H1650,0.405
4,NCI-H1993,0.678
5,NCI-H2347,0.732
6,PC-14,0.226
7,LCLC-103H,0.682
8,NCI-H596,1.12
9,NCI-H2126,0.561
10,EMC-BAC-2,0.974
11,NCI-H2085,0.602
12,HCC-366,0.326
13,NCI-H1666,0.76
14,NCI-H647,0.487
15,LK-2,0.243
16,NCI-H2087,0.252
17,NCI-H1648,0.568

row,Cell Line,relative viability
1,NCI-H1395,0.766
2,H3255,0.718
3,COR-L23,0.459
4,COR-L 105,0.677
5,LOU-NH91,0.828
6,ChaGo-K-1,0.528
7,NCI-H358,0.25
8,A549,0.273
9,NCI-H522,0.73
10,SW 900,0.462
11,NCI-H2009,0.343
12,NCI-H520,0.509
13,SW 1573,0.528
14,NCI-H2023,0.206
15,SK-LU-1,0.632
16,SK-MES-1,0.416
17,NCI-H661,0.598

# Same assay, conditions: first compound 1 µM
row,Cell Line,relative viability
1,NCI-H2342,0.697
2,NCI-H838,0.523
3,NCI-H1650,0.603
4,NCI-H1993,0.59
5,NCI-H2347,0.666
6,PC-14,0.305
7,LCLC-103H,0.679
8,NCI-H596,0.966
9,NCI-H2126,0.643
10,EMC-BAC-2,1.16
11,NCI-H2085,0.581
12,HCC-366,0.473
13,NCI-H1666,0.765
14,NCI-H647,0.295
15,LK-2,0.277
16,NCI-H2087,0.424
17,NCI-H1648,0.46

row,Cell Line,relative viability
1,NCI-H1395,0.743
2,H3255,0.668
3,COR-L23,0.49
4,COR-L 105,0.719
5,LOU-NH91,0.769
6,ChaGo-K-1,0.535
7,NCI-H358,0.276
8,A549,0.332
9,NCI-H522,0.673
10,SW 900,0.505
11,NCI-H2009,0.382
12,NCI-H520,0.572
13,SW 1573,0.7
14,NCI-H2023,0.265
15,SK-LU-1,0.665
16,SK-MES-1,0.55
17,NCI-H661,0.596
